Assay results reported in patent US20250127165A1, “USE OF 2-AMINO-3-PHENYLBUTYRIC ACID OR 2,6-DIAMINO-3-METHYLHEXANOIC ACID AS PLANT IMMUNE RESISTANCE INDUCER” (NANJING TIANNONG BIOTECHNOLOGY CO., LTD., priority 2021, published 2025).

Columns and labels:
Format in all cases: in vivo
[1] = tested on: Pseudomonas syringae PstDC3000; assay: Induced resistance of Arabidopsis thaliana to Pseudomonas syringae infection; settings: for disease index / number of bacteria in the leaves, CFU/mg / number of bacteria in the leaves, CFU (mg): 3 days after inoculation; for decrease of the number of bacteria per milligram of leaves: compared with blank control
Protocol: 2-amino-3-phenylbutyric acid was dissolved in sterile water and then gradiently diluted with sterile water into solutions of 100 nM, 1,000 nM, and 10,000 nM, and a blank control was set up, while 0.02% Tween 20 was added as surfactant. The Pseudomonas syringae PstDC3000 was coated on the LB plate and cultured at 28° C. for 48 hours. Single colonies were picked and inoculated into a 50 mL centrifuge tube containing 2 mL of medium, cultured at 28° C. on a shaker at 250 rpm. The change of OD600 value of the bacterial solution was monitored every 1-2 hours until it reached 0.8, and the culture of the bacteria was stopped. 1 mL of the bacterial solution was transferred into a 1.5 mL sterile centrifuge tube and centrifuged at 8,000 rpm for 2 min to collect the precipitate. The supernatant was removed, and the precipitate was washed 3 times with 10 mM magnesium chloride and centrifuged, and finally the PstDC3000 was resuspended in 10 mM magnesium chloride to reach an OD600 value of […] for later use. The Arabidopsis thaliana seeds were soaked in 75% alcohol for 3 min, then washed 4 times with sterile water and planted in a Petri dish containing ½ MS medium. Twelve seeds were planted in each petri dish, and ½ MS petri dishes with seeds were vernalized at 4° C. for 3 d to break dormancy and then placed in a culture room at 22° C. with a light intensity of 100 μE m^−2s^−1 (16 h light/8 h darkness). When the seedlings grew for 2 weeks, the 2-amino-3-phenylbutyric acid solutions at different concentrations were slowly poured into the petri dish until the whole Arabidopsis thaliana seedlings were submerged, and kept for 2-3 minutes, and then the treatment solution was poured out of the petri dish. The treatment was performed once every 24 h for a total of 2 treatments. 24 hours after the second treatment, the PstDC3000 suspension (OD600=0.01) was inoculated onto the leaves of Arabidopsis thaliana by the same submerge method. After inoculation, the petri dish was closed with a medical breathable adhesive tape and placed in the culture room for further culture. After 3 days, the number of bacteria in different treatments was determined and the incidence of Arabidopsis thaliana was observed. The disease index was calculated in the same manner as that in Example 2.
Grading standard of Disease injury caused by PstDC3000 (per leave): • Grade 0: No diseased patches on the leaves; • Grade 1: The area of diseased spots accounts for 0%-10% of the whole leaf; • Grade 2: The area of diseased spots accounts for 10%-25% of the whole leaf; • Grade 3: The area of diseased spots accounts for 25%-50% of the whole leaf; • Grade 4: The area of diseased spots accounts for 50%-75% of the whole leaf; • Grade 5: The area of diseased spots accounts for 75%-100% of the whole leaf.

tea seedlings (Baiye 1) = assay: Induced resistance of tea tree to low temperature stress; settings: for PIABS (photosynthetic performance index): after −4° C. for 24 h; for cold injury index (%): −4° C. 24 h, 3 days recovery
Protocol: The tea tree tested was cutting seedling of Baiye 1. Tea seedlings with consistent growth were selected and transplanted into plastic pots with a diameter of 18 cm and placed in a greenhouse with a temperature of 25° C. and a humidity of 60%-70% for adaptive growth for about a week for the experiment. The concentrations used in this experiment were 0, 100, 1,000, and 10,000 nM, and 0.02% Tween 20 was added as surfactant, where the spray treatment method was the same as that of Arabidopsis thaliana in Example 1, the duration of low temperature stress was 24 hours, and the temperature was set to −4° C. After the stress was completed, the tea seedlings were removed and after 30 min of dark treatment at room temperature, the chlorophyll fluorescence of the top leaves of the tea seedlings was measured with Plant Efficiency Handy PEA. The tea seedlings were then placed in a greenhouse at 25° C. for 3 days for recovery. Then the condition of cold injury was observed and graded, where the grading standard of cold injury is shown Table 12, the formula for calculating the cold injury index is as follows.
The concentrations of 2,6-diamino-3-methylhexanoic acid used in the trail were 0, 1, 10, 100, and 1,000 nM, and 0.02% Tween 20 was added as surfactant. The effect of 2,6-diamino-3-methylhexanoic acid to induce the resistance of tea to low-temperature stress was investigated according to the method as described above.

cotton (Sikang 1) = assay: Induced resistance of cotton to salt stress (100 mM NaCl); settings: three days
Protocol: The experimental material was “Sikang 1” cotton, which was hydroponic cultured in a 500 mL plastic cup and ½ Hoagland nutrient solution was changed every three days. When the cotton seedling grew until the second true leaf fully unfolded, the leaf surface was sprayed with 2-amino-3-phenylbutyric acid solution. The concentrations used in this experiment were 0, 1, 10, 100, and 1,000 nM, and 0.02% Tween 20 was added as surfactant. The spraying was repeated once every 24 hours for a total of 2 times. On the second day after the treatment, NaCl was added to the ½ Hoagland nutrient solution to a final concentration of 100 mM to perform salt stress treatment. Each treatment was performed in triplicate. After three days of salt stress, rehydration treatment was performed, the salt injury symptoms of cotton were observed, and calculate the salt injury index was calculated. The formula is as follows: […]

Row | Structure (SMILES) | decrease of the disease index ([1]; 100 nM) | disease index ([1]; 100 nM) | decrease of the number of bacteria per milligram of leaves ([1]; 100 nM) | decrease of the disease index ([1]; 1,000 nM) | disease index ([1]; 1,000 nM) | decrease of the number of bacteria per milligram of leaves ([1]; 1,000 nM) | decrease of the disease index ([1]; 10,000 nM) | number of the bacteria per mg leaves ([1]; 10,000 nM) | decrease of the number of bacteria per milligram of leaves ([1]; 10,000 nM) | PIABS (photosynthetic performance index) (tea seedlings (Baiye 1); 100 nM) | cold injury index (%) (tea seedlings (Baiye 1); 100 nM) | PIABS (photosynthetic performance index) (tea seedlings (Baiye 1); 1,000 nM) | cold injury index (%) (tea seedlings (Baiye 1); 1,000 nM) | mortality (%) (cotton (Sikang 1); 1 nM) | salt injury index (%) (cotton (Sikang 1); 1 nM) | mortality (%) (cotton (Sikang 1); 10 nM) | salt injury index (%) (cotton (Sikang 1); 10 nM) | mortality (%) (cotton (Sikang 1); 100 nM) | salt injury index (%) (cotton (Sikang 1); 100 nM) | mortality (%) (cotton (Sikang 1); 1,000 nM) | further results
1 | CC(c1ccccc1)C(N)C(=O)O (stereo not shown) [2-amino-3-phenylbutyric acid] | 52.57% | 38.04 ± 1.04 b | 92.05% | 58.45% | 33.33 ± 4.17 c | 92.94% | 81.82% | 1.34×10^5 per mg leaves | 95.56% | 21.83 ± 1.73 bc | 66.33% | 33.67 ± 3.27 b | 45% | 49% | 66.67% | 46% | 55% | 32% | 51% | 28% | number of bacteria in the leaves, CFU/mg ([1]; 100 nM): 2.40 × 10^5 CFU/mg; number of bacteria in the leaves, CFU/mg ([1]; 1,000 nM): 2.13 × 10^5 CFU/mg; number of bacteria in the leaves, CFU/mg ([1]; 10,000 nM): 1.34 × 10^5 CFU/mg; decrease of cold injury index (tea seedlings (Baiye 1); 10,000 nM): 35%; increase of PIABS (tea seedlings (Baiye 1); 10,000 nM): 147%; PIABS (photosynthetic performance index) (tea seedlings (Baiye 1); 10,000 nM): 42.36 ± 3.51 a; cold injury index (%) (tea seedlings (Baiye 1); 10,000 nM): 40%; salt injury index (%) (cotton (Sikang 1); 1,000 nM): 42%
2 | CC(CCCN)C(N)C(=O)O (stereo not shown) [2,6-diamino-3-methylhexanoic acid] | 50.96% | 42.01 ± 1.36 b | 73.93% | 56.15% | 37.57 ± 0.24 c | 84.15% | 76.82% | 1.58×10^5 per mg leaves | 95.11% | 37.41 ± 0.14 b | 33% | 40.14 ± 0.15 a | 26% | 46% | 53% | 40% | 49% | 27% | 42% | 23% | number of bacteria in the leaves, CFU (mg) ([1]; 100 nM): 8.42 × 10^5 CFU (mg); number of bacteria in the leaves, CFU (mg) ([1]; 1,000 nM): 5.12 × 10^5 CFU (mg); number of bacteria in the leaves, CFU (mg) ([1]; 10,000 nM): 1.58 × 10^5 CFU (mg); PIABS (photosynthetic performance index) (tea seedlings (Baiye 1); 1 nM): 25.53 ± 0.09; cold injury index (%) (tea seedlings (Baiye 1); 1 nM): 46%; PIABS (photosynthetic performance index) (tea seedlings (Baiye 1); 10 nM): 32.44 ± 1.51 c; cold injury index (%) (tea seedlings (Baiye 1); 10 nM): 42%; decrease of cold injury index (tea seedlings (Baiye 1); 1,000 nM): 45%; increase of PIABS (tea seedlings (Baiye 1); 1,000 nM): 121%; salt injury index (%) (cotton (Sikang 1); 1,000 nM): 36%
